Results as given in patent US20050267145A1, “Treatment for lung cancer” (priority 2004, published 2005).

Key:
[1] = tested on: A23187-Stimulated LTB4 in Rat Lung; test: A23187-stimulated LTB4 in rat lung in situ (MDI dosing); settings: 20 μg by single MDI activation into excised rat lung, A23187 challenge, LTB4 by RIA
Description: For the evaluation of test compounds using metered dose inhalers, dry compounds were dissolved in ethanol to a concentration of 2.33 mg/mL. 2.54 mL of this solution was added to a 20 g glass metered dose inhaler (MDI) vial and fitted with a continuous valve. The vials were cooled on dry ice, filled with 18 g of HFA 134a (DYMEL, E. I. Du Pont de Nemours and Co., Corpus Christi, Tex.), returned to dry ice, and the continuous valve was replaced with an intermittent valve that delivered 25 μL per activation. A single activation of a vial prepared as described delivered 20 μg of compound per activation. For experiments requiring different mass of compound per activation, the initial ethanol solution concentration was adjusted as necessary.
Male Sprague-Dawley rats (Charles River Laboratories, Inc. Wilmington, Mass.) weighing 250-300 grams were anesthetized with methoxyflurane in a closed container, the peritoneal cavity was exposed, and the animals were exsanguinated. The pleural cavity was exposed and the lung was removed with both the trachea and heart attached. The trachea was fitted with a cannula, secured with a ligature, and the distal end of the cannula was extended through a small hole in a #6 rubber stopper allowing for a tight seal. The lung, secured to the cannula and stopper, was then suspended in a 125 mL side arm Erlenmeyer flask filled to 100 mL with PBS warmed to 37° C. As such, access to the airways of the lung could be achieved through the cannula extending through the stopper to the outside of the flask. The flask was then placed in a 37° C. water bath.
An MDI, prepared as described above, containing test compound was fired with a single activation through the cannula and into the airways of the lung. The MDI were made to deliver 20 μg/shot, thus providing a dose of from about 0.06 mg/kg to about 0.08 mg/kg. Control lungs were similarly treated with an MDI containing propellant and co-solvent. The lungs were then incubated for 5 minutes at 37° C. Following this preincubation, 25 μL of 10 mM A23187 (Sigma Chemical Co., St. Louis, Mo.) was fired into the airways and the lung was incubated for an additional 10 minutes. Control lungs again were treated with propellant and co-solvent, only.
The lungs were then lavaged with 5 mL of ice cold PBS containing 1 mM EDTA. The recovered lavage fluid was centrifuged for 10 minutes at 150×g to sediment cells and LTB4 was quantified in the supernatant by specific RIA. The sensitivity of this assay was 155 pg/mL.

5-lipoxygenase = biological target: T1, 5-lipoxygenase (Mus musculus, UniProt P48999); test: Sustained 5-lipoxygenase inhibition in vitro (LTC4 by RIA, mouse peritoneal macrophages, washout); type: cell-based; settings: 10 μM for 30 minutes, washed, six hours washout, zymosan 50 μg/mL challenge; for inhibition at 10 µM: read-out: Sustained Inhibition, 10 μM Initial
T1 construct: Resident mouse peritoneal macrophages were obtained from male CD-1 mice; endogenous in cells; host or cells: resident peritoneal macrophages from male CD-1 mice (Charles River Laboratories)
T1 sequence (P48999 1-674): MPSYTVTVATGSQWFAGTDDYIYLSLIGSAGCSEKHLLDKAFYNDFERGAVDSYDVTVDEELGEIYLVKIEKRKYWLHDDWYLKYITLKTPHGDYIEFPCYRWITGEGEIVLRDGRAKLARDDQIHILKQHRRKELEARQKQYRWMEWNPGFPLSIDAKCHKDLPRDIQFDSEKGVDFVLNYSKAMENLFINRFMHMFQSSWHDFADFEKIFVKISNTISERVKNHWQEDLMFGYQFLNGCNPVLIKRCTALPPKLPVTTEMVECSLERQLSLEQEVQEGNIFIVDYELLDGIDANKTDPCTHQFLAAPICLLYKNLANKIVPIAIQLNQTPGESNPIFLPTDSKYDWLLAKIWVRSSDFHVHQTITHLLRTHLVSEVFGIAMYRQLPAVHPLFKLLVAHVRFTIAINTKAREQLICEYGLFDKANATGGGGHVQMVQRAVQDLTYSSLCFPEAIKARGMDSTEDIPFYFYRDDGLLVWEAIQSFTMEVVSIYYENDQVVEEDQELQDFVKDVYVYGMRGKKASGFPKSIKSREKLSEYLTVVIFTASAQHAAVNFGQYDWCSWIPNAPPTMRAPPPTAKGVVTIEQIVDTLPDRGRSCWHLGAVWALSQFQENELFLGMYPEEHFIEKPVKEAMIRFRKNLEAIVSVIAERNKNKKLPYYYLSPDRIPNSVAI
Description: LTC4 was purchased from Biomol International, L.P., Plymouth Meeting, Pa.; ^3H-LTC4 was purchased from PerkinElmer Life and Analytical Sciences, Inc., Boston, Mass.; and antibody to LTC4 was purchased from Advanced Magnetics, Inc., Cambridge, Mass.
The retrieved lavage medium was added to tissue culture dishes and incubated for two hours at 37° C. in a humidified atmosphere containing 5% CO2. Following macrophage enrichment by adherence, the culture medium was removed and the resultant cell layer was washed twice with PBS, the medium (with heparin) was replaced with 1 mL of medium (without heparin), and the cells were then incubated overnight as described above. The following morning the medium was removed and the macrophages were washed twice with 2 mL PBS. One mL of fresh medium, devoid of serum, was then added.
Test compounds were added to the macrophage cultures to achieve a final concentration of 10 μM. The final DMSO concentration was 0.1% in for each test compound. Blank and control cultures were treated with DMSO only. After 30 minutes incubation, the macrophages were washed twice with 2 mL PBS. […] This treatment described in (b) was to allow for a washout period for the test compound.

pulmonary adenomas = test: Benzo(a)pyrene-induced pulmonary adenomas in A/J mice; type: in vivo, mouse; settings: sixteen weeks; for Adenoma counts, groups 1H and 2H compared: high dose 425 μg/kg by inhalation
lung tumors = settings: mice, administered orally; cited from earlier work
[2] = tested on: MC-26 murine colon carcinoma cells; test: Lung metastatic mouse model (MC-26 colon carcinoma cells i.v.), lung weight; type: in vivo; settings: statement on Table 3
Description: A lung metastatic mouse model was used to determine the anti-tumor activity of a 5-LO inhibitor (zileuton) in combination with an IRM. 12-18 week old CDF1 female mice (Charles River Laboratories, Inc.) weighing 20-22 grams were injected in the tail intravenously with 5×10^5 MC-26 murine colon carcinoma cells. IRM2 was prepared in a 0.03M citrate buffered saline solution, pH 4.0. Zileuton was prepared in a 10% ethanol in water solution. At four hours and 24 hours after tumor challenge, mice were injected intra-peritoneally with zileuton and IRM2 as indicated in Table 3. One group of mice (Vehicle) was untreated. Fourteen days after tumor challenge, mice were sacrificed and lungs were removed and weighed.

Compound | Inhibition, 20 μg in situ [1] | inhibition at 10 µM (5-lipoxygenase) [%] | other results
CCCCCN(O)C(=O)Nc1ccc(Oc2ccccc2)cc1 [Compound 6, 1-hydroxy-3-(4-phenoxyphenyl)-1-pentylurea] | 88 | 100 | –
CCC(CC)N(O)C(=O)Nc1ccc(Cc2ccc(NC(=O)N(O)C(CC)CC)cc2)cc1 [Compound 5] | 66 | – | Sustained Inhibition, 10 μM Initial (5-lipoxygenase): 86
CCCCCN(O)C(=O)Nc1cc(OC)c(OC)c(OC)c1 [Compound 4, 1-hydroxy-1-pentyl-3-(3,4,5-trimethoxyphenyl)urea] | 84 | 24 | –
CCC(CC)N(O)C(=O)Nc1cccc(Oc2ccccc2)c1 [Compound 1, 1-hydroxy-1-(1-ethylpropyl)-3-(3-phenoxyphenyl)urea] | 100 | 100 | Adenoma counts, groups 1H and 2H compared (pulmonary adenomas): similar
CSc1ccc(NC(=O)N(O)C(C)C)cc1 [Compound 7, 1-hydroxy-1-(1-methylethyl)-3-[4-(methylthio)phenyl]urea] | – | 18 | –
O=C(Nc1ccccc1)N(O)CCCn1cccc1 [Compound 3, 1-hydroxy-1-(3-pyrrol-1-ylpropyl)-3-phenylurea] | 84 | 3 | –
CCC(CC)N(O)C(=O)Nc1ccccc1 [Compound 8, 1-hydroxy-1-(1-ethylpropyl)-3-phenylurea] | 72 | 12 | –
CCCCCN(O)C(=O)Nc1ccc(OCCCC)cc1 [Compound 2, 3-(4-butoxyphenyl)-1-hydroxy-1-pentylurea] | – | – | Adenoma counts, groups 1H and 2H compared (pulmonary adenomas): similar
CSc1ccc(NC(=O)N(C)O)cc1 [Compound 9, 1-hydroxy-1-methyl-3-[4-(methylthio)phenyl]urea] | – | 0 | –
CC(c1cc2ccccc2s1)N(O)C(N)=O (stereo not drawn) [Zileuton, zileuton, reference compound] | 42 | 28 | preventing lung tumors and slowing growth and progression of adenoma to carcinoma (lung tumors): effective; effect on the number of pulmonary adenomas (pulmonary adenomas; oral, average 245 mg/kg in the diet): did not have any apparent effect; tumor growth [2]: inhibits tumor growth
